Source: patent US20210371784A1, “CELL-CONTAINING VESSEL AND METHOD FOR PRODUCING NEURAL CELL-CONTAINING SPHEROID” (RICOH COMPANY, LTD., priority 2020, published 2021)

System: spheroids of human iPSC-derived neurons and human iPSC-derived astrocytes
Test: Calcium transient assay of neural cell-containing spheroids in the presence of a drug
Type: cell-based
Details: 4-AP final concentration 30 μM, 10-minute period immediately following the addition, spheroids cultured 7 weeks
Excerpt: Spheroids were produced using human iPSC-derived neurons and human iPSC-derived astrocytes, and the drug responsiveness was investigated. First, human iPSC-derived neurons (mixed neurons, manufactured by Elixirgen Scientific, Inc.) and human iPSC-derived astrocytes (Human iPS-derived Astrocytes (mature), manufactured by Xcell Science Inc.) were mixed so as to achieve cell numbers per well that satisfied the cell numbers indicated below in Table 3 for test numbers 3-1 and 3-2. Subsequently, each cell mixture was inoculated onto a spheroid production plate and cultured to produce a spheroid. […]
Subsequently, following culturing for 7 weeks, each of the spheroids was subjected to a calcium transient assay in the presence of a drug. […] In the calcium transient assays, excessive excitation of the neurons was detected as an increase in oscillation frequency or an elevated baseline.
Specifically, first, each spheroid was transferred to a measurement plate, a calcium-sensitive fluorescent dye (EarlyTox Cardiotoxicity Kit, manufactured by Molecular Devices, LLC) was added to the medium, and the mixture was incubated. Subsequently, 4-AP was added to the medium in an amount sufficient to achieve a final concentration of 30 μM, and fluorescence measurements were conducted at 0.6-second intervals for the 10-minute period immediately following the addition. […]

Nc1ccncc1 [4-AP, 4-aminopyridine]
change in the waveform of the oscillations (drug responsiveness) (test number 3-1, cell number ratio (neurons:astrocytes) 1:1): the expected type of change in the waveform of the oscillations was confirmed | change in the waveform of the oscillations (drug responsiveness) (test number 3-2, cell number ratio (neurons:astrocytes) 4:1): the expected type of change in the waveform of the oscillations could not be confirmed
